The source made the active and inactive calls.
Assays:
[1] = test system: Streptococcus sp. 'group A'; assay: Streptococcus pyogenes SK(-)GAS viability under kanamycin – luminescence, BacTiterGlo, confirmation, counter-screen for streptokinase expression inhibitor project, dose response (AID 1900); format: functional, organism-based
[2] = molecular target: T1, Streptokinase A (Streptococcus pyogenes serotype M1, UniProt P10520); assay: viability-normalized secreted streptokinase activity reduction – plasminogen activation absorbance, OD405, dose response (AID 1914); format: functional, Streptococcus pyogenes M1 GAS;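 note: secreted streptokinase activity via plasminogen activation per viability signal from cell pellet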
T1 sequence (P10520 whole entry): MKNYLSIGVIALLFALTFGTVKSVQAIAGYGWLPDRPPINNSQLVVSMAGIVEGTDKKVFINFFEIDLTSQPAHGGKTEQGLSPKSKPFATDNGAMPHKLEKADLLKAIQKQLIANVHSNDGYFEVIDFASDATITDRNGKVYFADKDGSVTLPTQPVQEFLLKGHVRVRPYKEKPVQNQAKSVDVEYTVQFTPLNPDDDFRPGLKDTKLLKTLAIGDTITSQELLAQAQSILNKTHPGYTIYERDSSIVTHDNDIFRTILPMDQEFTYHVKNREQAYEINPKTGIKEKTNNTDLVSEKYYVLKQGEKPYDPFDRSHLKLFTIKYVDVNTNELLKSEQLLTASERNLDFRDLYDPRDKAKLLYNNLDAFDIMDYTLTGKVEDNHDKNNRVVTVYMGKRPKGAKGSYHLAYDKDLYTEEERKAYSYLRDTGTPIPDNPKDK

[3] = test system: Streptococcus; assay: GAS UMAA2166 growth inhibition – luminescence, BacTiterGlo, counter-screen for streptokinase expression inhibitor project, dose response (AID 1915); format: functional, organism-based;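 note: potency for reduction of bacterial viability or growth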
[4] = molecular target: Cytochrome P450 3A4 (Homo sapiens, UniProt P08684);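 note: CYP3A4 tested as one member of a cytochrome P450 panel screen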
Chain of Cytochrome P450 3A4 (P08684 whole entry): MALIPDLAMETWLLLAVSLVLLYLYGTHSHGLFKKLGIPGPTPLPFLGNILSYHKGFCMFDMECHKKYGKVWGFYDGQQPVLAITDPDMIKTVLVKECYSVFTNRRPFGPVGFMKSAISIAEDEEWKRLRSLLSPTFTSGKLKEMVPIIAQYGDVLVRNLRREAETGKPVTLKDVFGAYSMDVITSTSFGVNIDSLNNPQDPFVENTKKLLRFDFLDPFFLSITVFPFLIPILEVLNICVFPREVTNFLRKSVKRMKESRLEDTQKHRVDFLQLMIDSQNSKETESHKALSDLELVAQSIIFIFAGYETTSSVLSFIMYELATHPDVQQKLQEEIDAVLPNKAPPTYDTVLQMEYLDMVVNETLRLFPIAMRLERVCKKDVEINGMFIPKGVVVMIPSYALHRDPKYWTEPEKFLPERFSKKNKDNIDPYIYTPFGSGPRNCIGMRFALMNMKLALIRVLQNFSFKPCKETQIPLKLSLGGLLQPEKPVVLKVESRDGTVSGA

[5] = molecular target: Cytochrome P450 2C19 (Homo sapiens, UniProt P33261); assay: Cytochrome panel assay with activity outcomes. Panel member name: p450-cyp2c19 Compounds with AC50 equal or less than 10 uM are considered active; format: functional; details: read-out: AC50
Chain of Cytochrome P450 2C19 (P33261 whole entry): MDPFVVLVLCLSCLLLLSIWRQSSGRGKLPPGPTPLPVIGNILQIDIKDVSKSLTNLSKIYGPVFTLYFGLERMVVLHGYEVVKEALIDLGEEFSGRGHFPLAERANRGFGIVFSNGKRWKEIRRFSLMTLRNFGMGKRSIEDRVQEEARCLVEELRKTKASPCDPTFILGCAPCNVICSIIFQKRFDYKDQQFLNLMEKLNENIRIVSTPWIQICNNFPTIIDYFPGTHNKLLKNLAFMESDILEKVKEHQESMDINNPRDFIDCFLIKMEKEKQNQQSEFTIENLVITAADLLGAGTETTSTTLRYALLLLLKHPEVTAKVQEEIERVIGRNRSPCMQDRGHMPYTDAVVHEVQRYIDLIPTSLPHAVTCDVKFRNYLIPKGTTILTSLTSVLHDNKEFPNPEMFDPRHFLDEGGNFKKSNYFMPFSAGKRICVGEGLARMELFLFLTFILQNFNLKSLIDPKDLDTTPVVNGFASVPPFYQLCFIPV

[6] = molecular target: Cytochrome P450 2C9 (Homo sapiens, UniProt P11712)
Chain of Cytochrome P450 2C9 (P11712 whole entry): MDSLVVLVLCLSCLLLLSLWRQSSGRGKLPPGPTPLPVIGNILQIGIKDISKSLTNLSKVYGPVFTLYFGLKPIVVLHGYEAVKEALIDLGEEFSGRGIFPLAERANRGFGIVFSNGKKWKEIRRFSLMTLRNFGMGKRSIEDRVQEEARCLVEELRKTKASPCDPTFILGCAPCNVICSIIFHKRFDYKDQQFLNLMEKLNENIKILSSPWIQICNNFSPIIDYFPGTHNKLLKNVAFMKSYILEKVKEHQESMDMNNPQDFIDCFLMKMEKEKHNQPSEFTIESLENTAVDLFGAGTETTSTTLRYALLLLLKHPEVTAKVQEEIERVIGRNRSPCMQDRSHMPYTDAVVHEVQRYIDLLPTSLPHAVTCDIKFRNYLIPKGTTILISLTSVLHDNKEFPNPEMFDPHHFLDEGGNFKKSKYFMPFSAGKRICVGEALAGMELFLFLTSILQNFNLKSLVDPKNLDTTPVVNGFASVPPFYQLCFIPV

[7] = molecular target: Cytochrome P450 2D6 (Homo sapiens, UniProt P10635);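 note: CYP2D6 member of a cytochrome P450 panel assay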
Chain of Cytochrome P450 2D6 (P10635 whole entry): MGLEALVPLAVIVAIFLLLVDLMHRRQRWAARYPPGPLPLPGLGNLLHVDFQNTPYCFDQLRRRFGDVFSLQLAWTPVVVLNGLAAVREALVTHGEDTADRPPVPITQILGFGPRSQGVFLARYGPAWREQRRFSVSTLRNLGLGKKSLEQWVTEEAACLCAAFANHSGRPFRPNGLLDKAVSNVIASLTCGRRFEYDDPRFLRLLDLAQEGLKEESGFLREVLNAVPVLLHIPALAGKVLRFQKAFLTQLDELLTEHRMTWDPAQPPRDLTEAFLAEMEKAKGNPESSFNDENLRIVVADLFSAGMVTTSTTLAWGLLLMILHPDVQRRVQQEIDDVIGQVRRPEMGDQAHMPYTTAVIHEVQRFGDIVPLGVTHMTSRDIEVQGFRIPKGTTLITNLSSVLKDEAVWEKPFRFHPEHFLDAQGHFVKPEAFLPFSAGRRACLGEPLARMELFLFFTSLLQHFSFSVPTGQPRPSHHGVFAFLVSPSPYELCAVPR

[8] = molecular target: T2, Rac GTPase-activating protein 1 (Homo sapiens, UniProt Q9H0H5); assay: blockers of MgcRacGAP-driven Rac1 GTP hydrolysis – biochemical, ADP Hunter fluorescence, primary and confirmatory, confirmation (AID 624330); format: functional
T2 sequence (Q9H0H5 whole entry): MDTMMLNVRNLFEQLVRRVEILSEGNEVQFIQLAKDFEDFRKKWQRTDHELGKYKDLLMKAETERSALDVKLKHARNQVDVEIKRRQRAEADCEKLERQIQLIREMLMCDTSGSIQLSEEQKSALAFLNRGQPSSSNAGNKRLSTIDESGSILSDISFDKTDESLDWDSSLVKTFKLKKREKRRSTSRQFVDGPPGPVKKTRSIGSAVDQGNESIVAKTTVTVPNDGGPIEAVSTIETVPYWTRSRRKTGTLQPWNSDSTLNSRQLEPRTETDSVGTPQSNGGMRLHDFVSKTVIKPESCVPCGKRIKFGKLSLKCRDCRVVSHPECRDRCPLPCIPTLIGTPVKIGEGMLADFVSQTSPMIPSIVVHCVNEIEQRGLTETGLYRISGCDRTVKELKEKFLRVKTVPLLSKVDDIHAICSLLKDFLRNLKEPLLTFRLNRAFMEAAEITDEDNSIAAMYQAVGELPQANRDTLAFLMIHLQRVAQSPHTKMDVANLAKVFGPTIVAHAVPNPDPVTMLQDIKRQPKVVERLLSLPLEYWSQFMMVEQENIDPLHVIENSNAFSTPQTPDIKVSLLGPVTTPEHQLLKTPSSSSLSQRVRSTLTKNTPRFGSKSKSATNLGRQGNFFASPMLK

[9] = NIH3T3 cell viability loss – ATP luminescence, mouse fibroblasts, counter-screen, dose response (AID 2010); format: functional, cell-based;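 note: cells exposed to compound for about 90 hours before reading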
[10] = Trypanosoma cruzi growth suppression in host cells – NIH3T3 host cells, beta-gal luminescence, confirmation (AID 2044); format: functional, cell-based;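 note: intracellular parasites grown in NIH/3T3 mouse fibroblasts as host cells; luminescent beta-galactosidase reporter signal from transgenic T. cruzi replicating inside host cells; inhibitors lower the luminescence signal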
[11] = test system: INS1; assay: INS-1E survival protection against cytokine death – cell-based, luminescence, retest, dose response (AID 449756); format: functional; details: Rattus norvegicus;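 note: cell death triggered by IL-1 beta plus TNF-alpha plus IFN-gamma mixture; protective hits raise ATP signal compared with cytokine alone wells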

For `CCn1cc(CN2CCC(n3nccc3NC(=O)Cc3ccccc3)CC2)cn1`, the EC50 [1] was > 150 µM (not active), the EC50 [2] was > 150 µM (not active) and the EC50 [3] was > 150 µM (not active).

With `Cc1cc(C)c(S(=O)(=O)N2CCCCC2)c(C)c1N(C)S(=O)(=O)c1ccccc1` the AC50 [4] was 1.12 µM (inconclusive).

For `Cc1c(NC(=O)/C=C/C(=O)O)cccc1[N+](=O)[O-]`, the AC50 [5] was 15.8 µM (inconclusive) and the AC50 [6] was 28.2 µM (inconclusive).

With `Cc1noc(C)c1C(=O)Nc1ccc2ccccc2c1` the EC50 [1] was > 150 µM (not active), the EC50 [2] was > 150 µM (not active) and the EC50 [3] was > 150 µM (not active).

For `c1ccc(-n2c3ccccc3c3ccccc32)cc1`, the EC50 [1] was 6.43 µM (active), the EC50 [2] was > 150 µM (not active) and the EC50 [3] was > 150 µM (not active).

For `O=C(NCC(=O)N(c1ccccc1)C(C(=O)NC1CCCC1)c1cccnc1)c1cccs1` (configuration not stated), the AC50 [5] was 15.8 µM (inconclusive) and the AC50 [6] was 17.8 µM (inconclusive).

With `CCN(CC)CCn1c(=S)[nH]c2cc3c(cc2c1=O)OCO3` the AC50 [5] was 39.8 µM (inconclusive) and the AC50 [4] was 14.1 µM (inconclusive).

For `c1ccc(Nc2nc(-c3ccoc3)nc3ccccc23)cc1`, the AC50 [5] was 31.6 µM (inconclusive), the AC50 [4] was 20 µM (inconclusive) and the AC50 [7] was 39.8 µM (inconclusive).

In the case of `CN1CCN(Cc2coc3c(Cl)cc(Cl)cc3c2=O)CC1`, the IC50 [8] is reported as 79 µM (active).

In the case of `O=C(NNC1=Nc2cccc3cccc1c23)c1ccc(Br)cc1`, the EC50 [9] is reported as 6.29 µM (active), the EC50 [1] is reported as 0.324 µM (active) and the EC50 [2] is reported as > 150 µM (not active). The EC50 [3] was 10.6 µM (active) and the EC50 [10] was 1.12 µM (active).

With `CN(Cc1ccco1)c1nc(-c2cccc(C#N)c2)nc2ccccc12` the AC50 [6] was 1 µM (inconclusive).

For `COc1ccc(S(=O)(=O)Nc2ccc3oc(C)c(C(C)=O)c3c2)cc1`, the AC50 [11] was 6.13 µM (active).

For `Cc1cccc(C)c1NC(=O)C(c1ccccc1)N1CCC1=O` (configuration not stated), the AC50 [5] was 20 µM (inconclusive) and the AC50 [4] was 25.1 µM (inconclusive).

For `COc1ccc(Nc2ccc3ccccc3c2)cc1`, the IC50 [8] was 53.4 µM (active).

In the case of `Cc1ccc(OCC(O)CNC(=O)c2ccccc2C(=O)O)cc1` (configuration not stated), the AC50 [6] is reported as 0.00562 µM (inconclusive).

For `O=C(CCCc1nc(-c2ccc(Cl)cc2)no1)NC1CCCC1`, the AC50 [11] was 10.2 µM (active).

With `O=C(O)C1CCCCC1C(=O)Nc1ccc(S(=O)(=O)N2CCOCC2)cc1` (configuration not stated) the IC50 [8] was 150 µM (active).

For `Cc1ccc(CNC(=O)C2CCC(=O)N2C2CCCCC2)cc1` (configuration not stated), the AC50 [6] was 7.08 µM (inconclusive).

In the case of `O=C1NC(=S)NC1=Cc1ccc(O)cc1`, the IC50 [8] is reported as 9.78 µM (active).

With `CCCN1CCc2cc(O)cc3c2[C@H]1Cc1ccc(O)c(O)c1-3` the AC50 [7] was 15.8 µM (inconclusive) and the AC50 [6] was 39.8 µM (inconclusive).

With `C/N=C\c1cc(-c2ccccc2)sc1O` the IC50 [8] was 199 µM (active).

With `Oc1oc(-c2ccccc2)nc1/C=N/c1ccccc1` the AC50 [4] was 25.1 µM (inconclusive).

In the case of `Cc1cccc(CNc2ncnc3ccc(-c4ccc(C(=O)N(C)C)cc4)cc23)c1`, the AC50 [5] is reported as 39.8 µM (inconclusive), the AC50 [7] is reported as 25.1 µM (inconclusive) and the AC50 [6] is reported as 0.794 µM (inconclusive).

Reference: ChEMBL document CHEMBL1201862, “PubChem BioAssay data set” (2004)
